Here are results for 13 compounds from ChEMBL document CHEMBL1201862, “PubChem BioAssay data set” (2004).

Test systems include SK-OV-3; HT-29; OVCAR-3; OVCAR-4; U-251; EKVX; RPMI-8226; NCI-H522; UO-31; SK-MEL-28; NCI-H226; LOX IMVI; ACHN; 786-0; KM12; M14.
Common to all, as to test: NCI anticancer screen, dose series, 48 h

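Growth conditions: 96-well plates. Treatment: test compound, 48 hours, 5 concentrations. Analysis: linear interpolation between bracketing concentrations; unreached endpoints set to highest concentration. GI50 = concentration required for 50% inhibition of growth.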 Activity calls are given as the source filed them. Rule as the data show it: active = GI50 up to about 1.1 µM and inactive = higher.

With `O=C(/C=C\c1cccc2ccccc12)c1cccc2ccccc12`, the GI50 in the experiment on SK-OV-3 is > 10 µM (inactive); with HT-29 it was 5.25 µM (inactive); in the experiment with OVCAR-3, 7.91 µM (inactive); in the experiment with OVCAR-4 it was 6.37 µM (inactive); in the experiment with U-251, 6.34 µM (inactive); with EKVX it was 14.3 µM (inactive). Further, the GI50 is 6.95 µM (inactive) in the experiment on RPMI-8226; 7.64 µM (inactive) in the experiment with NCI-H522; 14.3 µM (inactive) with UO-31; 8.17 µM (inactive) in the experiment with SK-MEL-28; 9.16 µM (inactive) in the experiment on NCI-H226; 5.61 µM (inactive) in the experiment on LOX IMVI. In addition, the GI50 in the experiment on ACHN was 11.6 µM (inactive); with 786-0, 4.4 µM (inactive); in the experiment on KM12, 6.55 µM (inactive); with M14 it was 12.2 µM (inactive).
`O=C(Nc1ccccc1)N1C(c2ccccc2)=N[C@@H](c2ccccc2)[C@@H]1c1ccccc1`: the GI50 is 16.6 µM (inactive) in the experiment on HT-29; 22.9 µM (inactive) in the experiment with OVCAR-3; 17.6 µM (inactive) with OVCAR-4; 43.7 µM (inactive) with EKVX; 22.5 µM (inactive) in the experiment with RPMI-8226; 16.1 µM (inactive) in the experiment on UO-31. The GI50 in the experiment with SK-MEL-28 is 15.6 µM (inactive); in the experiment with NCI-H226, 23.3 µM (inactive); in the experiment on LOX IMVI, 14.6 µM (inactive); in the experiment on ACHN, 15.3 µM (inactive); with 786-0 it was 17.6 µM (inactive); in the experiment with KM12, 18.3 µM (inactive). Further, in the experiment on M14, the GI50 was 14.6 µM (inactive).
Regarding `CCOC(=O)c1ccc(N2C(=O)/C(=C\OC)c3ccccc3C2=O)cc1`, the GI50 in the experiment with SK-OV-3 is 5.22 µM (inactive); with HT-29 it was 44.3 µM (inactive); with OVCAR-3, 36.6 µM (inactive); in the experiment on OVCAR-4, 43.6 µM (inactive); in the experiment with U-251, 22.7 µM (inactive); with EKVX, > 100 µM (inactive). For the same compound, the GI50 is 27.8 µM (inactive) in the experiment on RPMI-8226; 29 µM (inactive) with NCI-H522; 15.5 µM (inactive) in the experiment with UO-31; 24.7 µM (inactive) with SK-MEL-28; 54 µM (inactive) in the experiment with NCI-H226; 42.4 µM (inactive) with ACHN. Besides, the GI50 was 27.2 µM (inactive) in the experiment with 786-0 and 42.6 µM (inactive) with KM12.
With `CCOc1ccccc1NC(=O)C1=C(C)NC(C)=C(C(=O)Nc2ccccc2OCC)C1c1ccc(NC(C)=O)cc1`, the GI50 in the experiment with SK-OV-3 is 11.5 µM (inactive); in the experiment with HT-29 it was 40.6 µM (inactive); in the experiment with OVCAR-3, 45.3 µM (inactive); with OVCAR-4, 43.8 µM (inactive); with U-251 it was 46.2 µM (inactive); with EKVX, 38.6 µM (inactive). The GI50 in the experiment on RPMI-8226 is 47.8 µM (inactive); with NCI-H522 it was 6.25 µM (inactive); in the experiment with UO-31, 23.6 µM (inactive); with SK-MEL-28 it was 73.8 µM (inactive); with NCI-H226, 27.7 µM (inactive); in the experiment on LOX IMVI, 38.9 µM (inactive). Also, the GI50 is 22.4 µM (inactive) in the experiment with ACHN, 29.6 µM (inactive) in the experiment with 786-0, 24.8 µM (inactive) in the experiment with KM12 and 29.9 µM (inactive) with M14.
As to `N#CC(NNC(=O)c1ccccc1O)c1ccccc1` (centres undefined), the GI50 in the experiment with SK-OV-3 is 3.62 µM (inactive); in the experiment on HT-29, 26 µM (inactive); with OVCAR-3 it was 3.12 µM (inactive); with OVCAR-4 it was 3.85 µM (inactive); in the experiment on U-251 it was 0.486 µM (active); with RPMI-8226, 6.32 µM (inactive). For the same compound, the GI50 in the experiment on NCI-H522 was 10.2 µM (inactive); with UO-31, 0.562 µM (active); in the experiment with SK-MEL-28, > 100 µM (inactive); with NCI-H226, 5.87 µM (inactive); with LOX IMVI, 2.9 µM (inactive); with ACHN it was 0.479 µM (active). The GI50 in the experiment with 786-0 is 2.5 µM (inactive); in the experiment on KM12 it was 1.61 µM (inactive); with M14, 0.942 µM (active).
Turning to `O=c1cc2n(c(=O)[nH]1)C1OC(C(O)C1O)[C@@H]2CCO` (some centres undefined), the GI50 in the experiment with SK-OV-3, in the experiment on HT-29, with OVCAR-4, in the experiment on U-251, in the experiment with EKVX and in the experiment on NCI-H522 was > 100 µM (inactive) each time. Also, the GI50 in the experiment with UO-31 is > 100 µM (inactive); with SK-MEL-28 it was > 100 µM (inactive); in the experiment on NCI-H226, > 10 µM (inactive); in the experiment on LOX IMVI, > 100 µM (inactive); with ACHN, > 100 µM (inactive); in the experiment on 786-0 it was > 100 µM (inactive). For the same compound, the GI50 in the experiment on KM12 and with M14 was > 100 µM (inactive) each time.
In the case of `CCOC(=O)NC(=O)c1cn(CCN2CCN(C(=O)CCCCCCCCCCC(=O)N3CCN(CCn4cc(C(=O)NC(=O)OCC)c(=O)[nH]c4=O)CC3)CC2)c(=O)[nH]c1=O`, the GI50 with SK-OV-3, with HT-29, in the experiment with OVCAR-3, in the experiment on OVCAR-4, in the experiment with U-251 and in the experiment on RPMI-8226 was > 100 µM (inactive) throughout. For the same compound, the GI50 with NCI-H522 was 86.5 µM (inactive); in the experiment with UO-31, > 100 µM (inactive); in the experiment on SK-MEL-28 it was > 100 µM (inactive); in the experiment with NCI-H226, > 100 µM (inactive); with LOX IMVI it was 29.3 µM (inactive); in the experiment on ACHN, > 100 µM (inactive). The GI50 with 786-0, with KM12 and with M14 was > 100 µM (inactive) throughout.
Take `NC1c2ccccc2Nc2ccccc21`: the GI50 with SK-OV-3 is 4.67 µM (inactive); in the experiment on HT-29 it was 4.08 µM (inactive); in the experiment on OVCAR-3, 6.08 µM (inactive); in the experiment on EKVX, 5.71 µM (inactive); in the experiment with RPMI-8226, 4.56 µM (inactive); in the experiment with NCI-H522, 2.15 µM (inactive). Further, the GI50 is 3.27 µM (inactive) with UO-31; 3.54 µM (inactive) in the experiment on SK-MEL-28; 9.1 µM (inactive) with NCI-H226; 3.53 µM (inactive) in the experiment with LOX IMVI; 4.9 µM (inactive) in the experiment on ACHN; 3.84 µM (inactive) in the experiment with 786-0. Further, the results for the GI50 in the experiment with KM12 and in the experiment with M14 were 4.22 µM (inactive) and 3.92 µM (inactive), respectively.
As to `On1c(-c2ccccc2)c(-c2c(-c3ccccc3)n(O)c3ccccc23)c2ccccc21`, the GI50 in the experiment with SK-OV-3 is 29.8 µM (inactive); in the experiment with HT-29, 45.7 µM (inactive); in the experiment on OVCAR-3, 38 µM (inactive); in the experiment with OVCAR-4 it was 52.1 µM (inactive); with U-251 it was 35.5 µM (inactive); in the experiment with NCI-H522 it was 22.8 µM (inactive). For the same compound, the GI50 with UO-31 was 15.5 µM (inactive); in the experiment on SK-MEL-28, 61.9 µM (inactive); with NCI-H226, 17.7 µM (inactive); in the experiment on LOX IMVI it was 26.2 µM (inactive); with ACHN it was 29.9 µM (inactive); with 786-0, 14.9 µM (inactive). In addition, the GI50 in the experiment with KM12 was 30.8 µM (inactive).
In the case of `O=C(/C=C/c1ccccc1)NC1C=Nc2ccc(Cl)cc2NC1=O` (centres undefined), the GI50 was 25.1 µM (inactive) in the experiment with SK-OV-3; 30 µM (inactive) in the experiment with HT-29; 19.5 µM (inactive) in the experiment on OVCAR-3; 20.5 µM (inactive) with OVCAR-4; 18.6 µM (inactive) in the experiment with U-251; 31.3 µM (inactive) with EKVX. Moreover, the GI50 was 9.64 µM (inactive) in the experiment on NCI-H522; 11.8 µM (inactive) with UO-31; 37.9 µM (inactive) in the experiment with SK-MEL-28; 30.8 µM (inactive) in the experiment with NCI-H226; 18.8 µM (inactive) with LOX IMVI; 24.1 µM (inactive) with ACHN. Besides, the results for the GI50 in the experiment on 786-0, in the experiment on KM12 and in the experiment with M14 were 23.2 µM (inactive), 22.2 µM (inactive) and 21.9 µM (inactive), respectively.
Regarding `O[C@]12c3ccccc3C1CCCCC2N1CCOCC1` (some centres undefined), the GI50 in the experiment on SK-OV-3, with HT-29, in the experiment on OVCAR-4, in the experiment on U-251, in the experiment with EKVX and in the experiment with RPMI-8226 was > 100 µM (inactive) in each case. Besides, the GI50 in the experiment with NCI-H522, with UO-31, with SK-MEL-28, in the experiment on NCI-H226, in the experiment on LOX IMVI and in the experiment on ACHN was > 100 µM (inactive) in each case. Moreover, the GI50 with 786-0, with KM12 and in the experiment on M14 was > 100 µM (inactive) each time.
In the case of `Cc1c(C(=O)C/C(=N/NC(=O)c2ccccc2)C(=O)Nc2ccc(Cl)cc2)[n+]([O-])c2ccccc2[n+]1[O-]`, the GI50 is > 100 µM (inactive) with SK-OV-3; > 100 µM (inactive) in the experiment on HT-29; 41.6 µM (inactive) in the experiment on OVCAR-3; > 100 µM (inactive) in the experiment with OVCAR-4; > 100 µM (inactive) with U-251; 80.4 µM (inactive) in the experiment with RPMI-8226. Moreover, the GI50 was 38.4 µM (inactive) in the experiment on NCI-H522; > 100 µM (inactive) in the experiment with SK-MEL-28; > 100 µM (inactive) with NCI-H226; 89.1 µM (inactive) with LOX IMVI; > 100 µM (inactive) with ACHN; > 100 µM (inactive) with 786-0. Also, the GI50 with KM12 and with M14 was > 100 µM (inactive) throughout.
Take `CCSC1=C(C)N(/C=N/C(C)(C)C)CC1`: the GI50 in the experiment on SK-OV-3, in the experiment with HT-29, in the experiment on OVCAR-3, in the experiment with OVCAR-4, in the experiment on U-251 and with EKVX was > 100 µM (inactive) throughout. In addition, the GI50 was > 100 µM (inactive) in the experiment on NCI-H522; > 100 µM (inactive) with UO-31; > 100 µM (inactive) with SK-MEL-28; > 100 µM (inactive) with NCI-H226; 89.1 µM (inactive) in the experiment with LOX IMVI; > 100 µM (inactive) in the experiment on ACHN. In addition, the GI50 in the experiment with 786-0, with KM12 and in the experiment on M14 was > 100 µM (inactive) throughout.
